Reference: publication PMC10571957, “αV-Integrin-Dependent Inhibition of Glioblastoma Cell Migration, Invasion and Vasculogenic Mimicry by the uPAcyclin Decapeptide” (Cancers, 2023)
“And” between values parts separate entries of the source, which are not always exact repeats. Identical values can stand only once. Square brackets hold non-standard residues; d marks the D form. NMeV = CN[C@H](C(=O)O)C(C)C

How the values were obtained:
[1] = test system: mice; set-up: method as in PMID 12183425; conditions: ref [65]; cited from earlier work
[2] = test system: gynecologic malignancies; set-up: method as in PMID 18760451, PMID 22446624; conditions: ref [66],[67], cited from earlier work
[3] = test system: patients with advanced glioblastoma; conditions: cited from earlier work
Source text: (§1) Since the identification of the integrin-binding domain (RGD) in fibronectin/vitronectin, RGD-containing peptides and derived compounds have been developed. […] In contrast, other trials have not shown cilengitide to be better in terms of progression-free survival or overall survival than the standard treatment ...

[4] = test system: GBM models; conditions: cited from earlier work
Source text: as §1

[5] = test system: U87-MG cells (αV integrin); experiment: FITC-uPAcyclin receptor binding/competition, U87-MG; set-up: species or system human; conditions: vitronectin 200 µM, anti-αV 5 µg/mL, anti-α2 1 µg/mL
Experimental: The U87-MG, U251-MG, and U138-MG cell lines were harvested and acid-treated, as described. Then, 2 × 10^6 cells/sample were exposed for 30 min at 4 °C to uPAcyclin or S-uPAcyclin at the indicated concentrations, or with the following antibodies: VNR147 monoclonal anti-αV integrin (Chemicon Int. Inc., Temecula, CA, USA), polyclonal anti-αV (Millipore, Burlington, MA, USA), monoclonal anti-α2 (Chemicon Int. Inc., Temecula, CA, USA), polyclonal anti-actin (Sigma-Aldrich, St. Louis, MO, USA), monoclonal anti-GAPDH (Abcam, Cambridge, UK), and purified vitronectin (VN, Corning, Glendale, AZ, USA). The cells were subsequently incubated with 50 nM FITC-uPAcyclin for 2 h at 4 °C, as described. At the end of incubation, the cells were washed and the cell surface-associated fluorescence was determined using a fluorimeter (VICTOR^TM X3-PerkinElmer, Waltham, MA, USA). All binding assays were performed three times, with duplicate samples, and analyzed as described in Section 2.11.
Figure 2 αV expression of U87-MG, U251-MG, and U138-MG GBM cells and specific binding of FITC-uPAcyclin. (A) U87-MG, U251-MG, U138-MG, HEK-293, and HEK-293/αV total cell lysates were subjected to Western blotting and probed using polyclonal anti-αV or polyclonal anti-actin as loading control. (B) A total of 2 × 10^6 U87-MG, U251-MG, U138-MG, HEK-293/αV, or HEK-293 cells were pre-incubated for 30 min at 4 °C with 500 nM uPAcyclin and further exposed to 50 nM FITC-uPAcyclin for 2 h at 4 °C. At the end of the incubation, the unbound material was washed and cell-associated FITC-uPAcyclin was quantitated by a fluorimeter. The net value of cell-surface-associated fluorescence, corresponding to the specific binding, is shown. (C) A total of 2 × 10^6 U87-MG, U251-MG, and U138-MG cells were pre-incubated for 30 min at 4 °C with increasing concentrations of unlabeled uPAcyclin and then assayed for binding of FITC-uPAcyclin, for 2 h at 4 °C. Cell-surface-associated fluorescence, as percentage of the samples […], is shown. (D) U87-MG cells were pre-incubated with uPAcyclin (1 pM, 100 nM), scrambled uPAcyclin (S-uPAcyclin, 1 pM and 100 nM)), vitronectin (200 µM), anti-αv polyclonal (anti-αV Pclonal, 5 µg/mL) or monoclonal (anti-αV MoAb, 5 µg/mL) or anti-α2 monoclonal (anti-α2 MoAb, 1 µg/mL), polyclonal anti-actin, and monoclonal anti GAPDH. Then, cells were treated as in B (* p-value < 0.05; *** p-value < 0.001).

[6] = test system: aggressive and recurrent meningiomas; conditions: combination with an mTOR inhibitor; ref [72]; cited from earlier work
Source text: As far as translation into clinics is concerned, it is worth mentioning that small peptides, such as uPAcyclin, are generally non-immunogenic and cost-effective to produce, and some of them have already entered clinical trials. […] Nevertheless, small peptides need to reach molecular targets to accomplish their effects. Thus, they often depend on physiological transports and ...

Ac-K^136PSSPPEE^143-NH2 [Å6]
anti-angiogenetic and anti-metastatic activity [1]: clearcut anti-angiogenetic and anti-metastatic activities in mice
tolerability ([2]; phase I, gynecologic malignancies): well tolerated
disease progression ([2]; phase II): delayed disease progression in the treated individuals

cilengitide: known αVβ3/αVβ5 integrin inhibitor (cyclo(RGD[dF][NMeV]); chains of the INN, looked up)
overall survival effect ([3]; patients with advanced glioblastoma, ref [52]): seemed to suggest a positive effect on overall survival
progression-free or overall survival vs standard treatments ([3]; ref [53]): have not shown cilengitide to be better in terms of progression-free survival or overall survival than the standard treatments
effect in GBM models ([4]; ref [51]): cytotoxic, anti-angiogenetic, and anti-invasive effect in GBM models
tumor angiogenesis at lower doses ([4]; suggested reason for failure in GBM patients, ref [54]): detrimental stimulation of tumor angiogenesis at lower doses

vitronectin: purified vitronectin (Corning)
competition with FITC-uPAcyclin binding, in words ([5]; U87-MG, S-uPAcyclin 1 pM and 100 nM): only at a high concentration
FITC-uPAcyclin binding, single values ([5]; T-test sheet, single replicates of all EXPTs): 42 and 50 and 45 and 47

octreotide
efficacy and tolerability [6]: effective and well tolerated
